Consider 1 compound from ChEMBL document CHEMBL4033734, “Synthesis of 3- and 29-substituted celastrol derivatives and structure-activity relationship studies of their cytotoxic activities” (Bioorg Med Chem Lett, 2017).

Data set [1] has as its system SGC-7901. Nature of the data set: Cytotoxic activity against human SGC7901 cells incubated for 48 hrs by MTT assay. It is filed as functional, cell-based. The note with it: SGC-7901, 48 h.
Data set [2] relates to A549. Nature of the data set: Antitumor activity against human A549 cells xenografted in nude mouse assessed as relative tumor volume at 6 mg/kg, ig dosed every day relative to initial tumor volume. The data set is classed as functional. For orientation: Xenograft models place foreign cells or tissue in a host animal.
In data set [3] the test system is Mus musculus. Nature of the data set: Toxicity in nude mouse xenografted with human A549 cells assessed as induction of mouse fatality at 12 mg/kg, ig dosed every day. The data set is classed as organism-based. The note with it: in vivo, po.
In data set [4] the test system is A549. Nature of the data set: Cytotoxic activity against human A549 cells incubated for 48 hrs by MTT assay. The data set is classed as functional, cell-based. The note with it: A549, 48 h.
Data set [5] deals with Mus musculus. Nature of the data set: Toxicity in nude mouse xenografted with human A549 cells assessed as change in body weight at 6 mg/kg, ig dosed every day (reference value: 25.9 g). The data set is classed as organism-based. The note with it: in vivo, po.
Data set [6] has as its system Bel-7402. Nature of the data set: Cytotoxic activity against human Bel7402 cells incubated for 48 hrs by MTT assay. The note with it: Bel-7402, 48 h. The data set is classed as functional, cell-based. On the technique in general: Formazan colour is commonly taken as a measure of viable cells.
Data set [7] deals with Mus musculus. Nature of the data set: Toxicity in nude mouse xenografted with human A549 cells assessed as induction of mouse fatality at 3 mg/kg, ig dosed every day. The note with it: in vivo, po. It is filed as organism-based.
Data set [8] has as its system HeLa. Nature of the data set: Cytotoxic activity against human HeLa cells incubated for 48 hrs by MTT assay. The data set is classed as functional, cell-based.
Data set [9] relates to HepG2. Nature of the data set: Cytotoxic activity against human HepG2 cells incubated for 48 hrs by MTT assay. The data set is classed as functional, cell-based. The note with it: HepG2, 48 h.
For data set [10], the system named is Mus musculus. Nature of the data set: Toxicity in nude mouse xenografted with human A549 cells assessed as induction of mouse fatality at 6 mg/kg, ig dosed every day. The note with it: in vivo, po. The data set is classed as organism-based.
Data set [11] relates to Mus musculus. Nature of the data set: Toxicity in nude mouse xenografted with human A549 cells assessed as change in body weight at 12 mg/kg, ig dosed every day (reference value: 25.8 g). It is filed as organism-based. The note with it: in vivo, po.
Data set [12] deals with A549. Nature of the data set: Antitumor activity against human A549 cells xenografted in nude mouse assessed as tumor growth inhibition at 3 to 12 mg/kg, ig dosed every day. It is filed as functional, organism-based.
Data set [13] relates to Mus musculus. Nature of the data set: Toxicity in nude mouse xenografted with human A549 cells assessed as change in body weight at 3 mg/kg, ig dosed every day (reference value: 26.8 g). It is filed as organism-based. The note with it: in vivo, po.
Data set [14] concerns A549. Nature of the data set: Antitumor activity against human A549 cells xenografted in nude mouse assessed as tumor growth inhibition at 6 mg/kg, ig dosed every day. The note with it: A549, po, read-out: TGI. The data set is classed as functional.
The test system of data set [15] is A549. Nature of the data set: Antitumor activity against human A549 cells xenografted in nude mouse assessed as relative tumor volume at 3 mg/kg, ig dosed every day relative to initial tumor volume. It is filed as functional.
Data set [16] has as its system A549. Nature of the data set: Antitumor activity against human A549 cells xenografted in nude mouse assessed as tumor growth inhibition at 3 mg/kg, ig dosed every day. It is filed as functional. The note with it: A549, po, read-out: TGI.
In data set [17] the test system is A549. Nature of the data set: Antitumor activity against human A549 cells xenografted in nude mouse assessed as tumor growth inhibition at 12 mg/kg, ig dosed every day. The data set is classed as functional. The note with it: A549, po, read-out: TGI.
Data set [18] deals with A549. Nature of the data set: Antitumor activity against human A549 cells xenografted in nude mouse assessed as relative tumor volume at 12 mg/kg, ig dosed every day relative to initial tumor volume. The data set is classed as functional.

pIC50: −log10 of the molar value.

As a reminder, the pIC50 is the negative decadic logarithm of the IC50, by convention in mol/L. Low values mean a high IC50, high ones a low IC50. As to `CC1=C(OC(=O)N2CCN(C)CC2)C(=O)C=C2C1=CC=C1[C@@]2(C)CC[C@@]2(C)[C@@H]3C[C@](C)(C(=O)OCc4ccccc4)CC[C@]3(C)CC[C@]12C`, the pIC50 was 5.89 in data set [1]; 5.29 in [4]; 5.99 in data set [6]; 5.64 in data set [8]; 5.58 in data set [9]. Also, the “fold change (FC)” value in data set [2] is 0.63; in data set [15], 0.76; in data set [18], 0.55. The Activity result in data set [3] is “Non-Toxic”; in data set [5], 27 g; in data set [7] it was “Non-Toxic”; in [10], “Non-Toxic”; in data set [11], 26.9 g; in [13], 26.5 g. The TGI result in data set [12] is “Dose-dependent effect”. In addition, the inhibition in vivo at 6 mg/kg in data set [14] is 57.5%. In [16], the inhibition in vivo at 3 mg/kg was 46.1%. For the same compound, the inhibition in vivo at 12 mg/kg in [17] came to 71%.
